Measured values reported in patent US6995123B2, “Use of multifunctional surface active agents to clean contact lenses” (Alcon, Inc., priority 2002, dated 2006).

Tested on: protein deposits (i.e., lysozyme) from Group IV lenses
Experiment: In vitro cleaning efficacy: removal of lysozyme deposits from soiled contact lenses
Protocol: The formulations shown in Table 1 below were tested to evaluate the ability of the multifunctional surfactants described above to remove protein deposits (i.e., lysozyme) from Group IV lenses. The cleaning performance was compared to conventional cleaning agents. The test procedures are described below, and the cleaning results are set forth at the bottom of Table 1.
The materials and methods utilized in the evaluation were as follows: 1.311 g of monobasic sodium phosphate (monohydrate), 5.74 g of dibasic sodium phosphate (anhydrous), and 9.0 g of sodium chloride were dissolved in deionized water and the volume was brought to 1000 mL with deionized water after completely dissolving the solutes and adjusting pH (if needed). The final concentrations of sodium phosphate and sodium chloride were 0.05 M and 0.9 w/v %, respectively. The final pH was 7.4.
A 1.0-mg/mL lysozyme solution was prepared by dissolving 500 mg of lysozyme in 500-mL of phosphate buffered saline.
A lens extraction solution was prepared by mixing 1.0 mL of trifluoroacetic acid with 500-mL of acetonitrile and 500 mL of deionized water. The pH of the solution ranged from 1.5 to 2.0.
Each lens was immersed with 5 mL of lysozyme solution in a Wheaton glass sample vial. The vial was closed with a plastic snap cap and incubated in a constant temperature water bath at 37° C. for 24 hours. After incubation, the deposited lens was removed from the vial and rinsed by dipping into three consecutive beakers containing 50 mL of deionized water to remove any excess of the deposition solution. The lens was then blotted gently with a laboratory towel (Kaydry EX-L, from Kimberly-Clark). These lenses were used as a soiled lenses for the evaluation of cleaning efficacy of the test solutions.
The lens was immersed in a Wheaton glass sample vial containing 5 mL of UNISOL® 4 saline solution. The vial was closed with a plastic snap cap held secure with a metal clasp to prevent the cap from popping off during the thermal treatment. […]
Each soiled lens was soaked and shaken with 5 mL of the test solution in a scintillation vial at room temperature for 12 hours. […] The clean lenses were then subjected to the extraction procedure described below, and the amount of lysozyme present in the soaking solutions was measured with a fluorescence spectrophotometer. […]
A quantitative determination of the amount of lysozyme in the lens extract solution and lens soaking solutions was carried out by a fluorescence spectrophotometer interfaced with an autosampler and a computer. The fluorescence intensity of a 2 mL aliquot from each sample solution was measured by setting the excitation/emission wavelength at 280 nm/346 nm with excitation/emission slits of 2.5 nm/10 nm, respectively, and the sensitivity of the photomultiplier was set at 950 volts. […]

SMILES: CCCCCCCCCCCC(=O)N(CCN(CC(=O)[O-])CC(=O)[O-])CC(=O)[O-].[Na+].[Na+].[Na+] [LED3A, lauroyl ethylene diaminetriacetate]
- cleaning efficacy (LED3A 0.03% in borate buffered vehicle containing 0.6% sodium citrate): 29.5%
- cleaning efficacy (LED3A 0.075% in borate buffered vehicle containing 0.6% sodium citrate): 47.5%
- cleaning efficacy (LED3A 0.1% in borate buffered vehicle containing 0.6% sodium citrate): 56.0%
- cleaning efficacy (LED3A 0.2% in borate buffered vehicle containing 0.6% sodium citrate): 60.2%
